Measurements as given in ChEMBL document CHEMBL2331442, “Synthesis and structure-activity relationships of N-methyl-5,6,7-trimethoxylindoles as novel antimitotic and vascular disrupting agents” (J Med Chem, 2013).
Activity calls are given as the source filed them. The rule behind the calls is not given here.

What was measured:
A549 [1] = experiment: Cytotoxicity against human A549 cells after 72 hrs by CCK-8 assay; type: functional, cell-based; conditions: A549, 72 h
A549 [2] = experiment: Antimitotic activity in human A549 cells assessed as disruption of microtubule organization at 0.05 uM after 16 hrs by DAPI staining-based Zeiss microscopic analysis relative to control; type: functional, cell-based
A549 [3] = experiment: Cell cycle arrest in human A549 cells assessed as accumulation at G1 phase at 0.1 uM after 24 hrs by propidium iodide staining-based FACS flow cytometric analysis (reference value: 53.57%); type: functional
Tubulin (Homo sapiens) = Tubulin (Homo sapiens) (UniProt P68371+Q9H4B7+P0DPH7+P68366+Q13509+Q71U36+P04350+Q3ZCM7+P07437+P68363+Q9BQE3+Q6PEY2+Q13885+Q9BVA1+Q9BUF5); experiment: Inhibition of tubulin polymerization in human A549 cells at 0.1 uM after 6 hrs by Western blotting analysis; type: cell-based
HUVEC [4] = experiment: Antiangiogenic activity in quesicent HUVECs assessed as disruption of preformed capillaries at 1 uM after 4 hrs by light microscopic analysis relative to control; type: cell-based; conditions: human
A549 [5] = experiment: Cell cycle arrest in human A549 cells assessed as accumulation at G2/M phase at 0.1 uM after 24 hrs by propidium iodide staining-based FACS flow cytometric analysis (reference value: 8.52%); type: functional
A549 [6] = experiment: Cell cycle arrest in human A549 cells assessed as accumulation at S phase at 0.1 uM after 24 hrs by propidium iodide staining-based FACS flow cytometric analysis (reference value: 32.56%); type: functional
HUVEC [7] = experiment: Antiangiogenic activity in activated HUVECs assessed as inhibition of capillary tube formation at 0.1 uM after 22 hrs by light microscopic analysis; type: functional, cell-based; conditions: Homo sapiens
A549 [8] = experiment: Antiangiogenic activity in human A549 cells xenografted in BALB/c nu/nu mouse assessed as disruption of tumor vasculature at 100 mg/kg, ip after 16 hrs by Hoechst 33342 staining-based Zeiss microscopic analysis relative to control; type: functional; conditions: route intraperitoneal
HUVEC [9] = experiment: Antiangiogenic activity in quesicent HUVECs assessed as disruption of preformed capillaries at 0.1 uM after 4 hrs by light microscopic analysis (reference value: 11%); type: cell-based; conditions: human
HUVEC [10] = experiment: Selectivity ratio of IC50 for quesicent HUVECs to IC50 for activated HUVECs; type: functional, Homo sapiens
HeLa = experiment: Cytotoxicity against human HeLa cells after 72 hrs by CCK-8 assay; type: functional, cell-based
HT-1080 = experiment: Cytotoxicity against human HT1080 cells after 72 hrs by CCK-8 assay; type: functional, cell-based; conditions: HT-1080, 72 h
HepG2 = experiment: Cytotoxicity against human HepG2 cells after 72 hrs by CCK-8 assay; type: functional, cell-based; conditions: HepG2, 72 h
HUVEC [11] = experiment: Antiproliferative activity against quesicent HUVECs after 48 hrs by CCK-8 assay; type: cell-based; conditions: Homo sapiens
HUVEC [12] = experiment: Antiproliferative activity against activated HUVECs after 48 hrs by CCK-8 assay; type: functional, cell-based; conditions: Homo sapiens
A549 [13] = experiment: Antimitotic activity in human A549 cells assessed as disruption of microtubule organization at 0.01 uM after 16 hrs by DAPI staining-based Zeiss microscopic analysis relative to control; type: functional, cell-based
A549 [14] = experiment: Antimitotic activity in human A549 cells assessed as disruption of microtubule organization at 0.1 uM after 16 hrs by DAPI staining-based Zeiss microscopic analysis relative to control; type: functional, cell-based

Compound COc1ccc(Cn2ccc3cc(OC)c(OC)c(OC)c32)cc1 has an IC50 (A549 [1]) of 3090 nM.

Work on COc1ccccc1C(=O)c1c[nH]c2c(OC)c(OC)c(OC)cc12 yielded an IC50 (A549 [1]) greater than 10000 nM.

For COc1ccc(C(=O)n2ccc3cc(OC)c(OC)c(OC)c32)cc1, the IC50 (A549 [1]) was greater than 10000 nM.

In the case of COc1ccc(C(=O)c2cn(C)c3c(OC)c(OC)c(OC)cc23)cc1O, the Activity (A549 [2]) is reported as “Active”, the Activity (A549 [3]) is reported as 5.07% and the inhibition (Tubulin (Homo sapiens)) is reported as 27%. It also gave an Activity (HUVEC [4]) of 49%, an Activity (A549 [5]) of 78.85% and an Activity (A549 [6]) of 14.34%. For the same compound, the inhibition (HUVEC [7]) was “Active”, the Activity (A549 [8]) was 68% and the Activity (HUVEC [9]) was 13%. The “Ratio IC50” value (HUVEC [10]) was 207, the IC50 (HeLa) was 125 nM and the IC50 (A549 [1]) was 28.3 nM. It also gave an IC50 (HT-1080) of 26.3 nM, an IC50 (HepG2) of 44.5 nM and an IC50 (HUVEC [11]; read-out: IC50) of 5240 nM. It also gave an IC50 (HUVEC [12]) of 25.3 nM.

COc1ccc(Cc2cn(C)c3c(OC)c(OC)c(OC)cc23)cc1F was tested, and the IC50 (A549 [1]) was 144 nM.

With COc1ccc(/C=C\c2cc(OC)c(OC)c(OC)c2)cc1O [COMBRETASTATIN A4] the Activity (A549 [13]) was “Active”, the Activity (A549 [8]) was 72% and the “Ratio IC50” value (HUVEC [10]) was 2.66. For the same compound, the IC50 (A549 [1]) was 3.64 nM, the IC50 (HUVEC [11]; read-out: IC50) was 8.9 nM and the IC50 (HUVEC [12]) was 3.34 nM.

COc1ccc(C(=O)c2c(C)n(C)c3c(OC)c(OC)c(OC)cc23)cc1O was tested, and the “Ratio IC50” value (HUVEC [10]) was 3.68, the IC50 (HeLa) was 632 nM and the IC50 (A549 [1]) was 108 nM. For the same compound, the IC50 (HT-1080) was 574 nM, the IC50 (HepG2) was 91.6 nM and the IC50 (HUVEC [11]; read-out: IC50) was 161 nM. For the same compound, the IC50 (HUVEC [12]) was 43.7 nM.

COc1ccc(C(=O)c2c[nH]c3c(OC)c(OC)c(OC)cc23)cc1Cl gave an IC50 (A549 [1]) greater than 10000 nM.

COc1ccc(C(=O)c2c[nH]c3c(OC)c(OC)c(OC)cc23)cc1O was tested, and the “Ratio IC50” value (HUVEC [10]) was 9.1, the IC50 (A549 [1]) was 166 nM and the IC50 (HUVEC [11]; read-out: IC50) was 2980 nM. It also gave an IC50 (HUVEC [12]) of 327 nM.

COc1ccc(C(=O)c2c[nH]c3c(OC)c(OC)c(OC)cc23)cc1 showed an IC50 (A549 [1]) of 8290 nM.

COc1ccc(C(=O)c2c[nH]c3c(OC)c(OC)c(OC)cc23)cc1F gave an IC50 (A549 [1]) greater than 10000 nM.

Compound COc1ccc(C(=O)c2c[nH]c3c(OC)c(OC)c(OC)cc23)cc1I has an IC50 (A549 [1]) greater than 10000 nM.

COc1ccc(C(=O)c2cn(C)c3c(OC)c(OC)c(OC)cc23)cc1F was tested, and the “Ratio IC50” value (HUVEC [10]) was 1.56, the IC50 (A549 [1]) was 146 nM and the IC50 (HUVEC [11]; read-out: IC50) was 151 nM. The IC50 (HUVEC [12]) was 96.4 nM.

COc1cc(C(=O)c2c[nH]c3c(OC)c(OC)c(OC)cc23)cc(OC)c1OC showed an IC50 (A549 [1]) greater than 10000 nM.

For COc1cc2c(C(=O)c3ccc(C)cc3)c[nH]c2c(OC)c1OC, the IC50 (A549 [1]) was greater than 10000 nM.

In the case of COc1ccc(C(=O)c2c(C)[nH]c3c(OC)c(OC)c(OC)cc23)cc1O, the IC50 (A549 [1]) is reported as 2620 nM.

With COc1ccc(Cn2ccc3cc(OC)c(OC)c(OC)c32)cc1O the IC50 (A549 [1]) was 3190 nM.

For COc1ccc(Cc2cn(C)c3c(OC)c(OC)c(OC)cc23)cc1O, the Activity (A549 [3]) was 3.9%, the inhibition (Tubulin (Homo sapiens)) was 31% and the Activity (HUVEC [4]) was 51%. The Activity (A549 [5]) was 80.48%, the Activity (A549 [6]) was 14.7% and the inhibition (HUVEC [7]) was “Active”. The Activity (HUVEC [9]) was 10%, the IC50 (HeLa) was 40.7 nM and the IC50 (A549 [1]) was 71.7 nM. The IC50 (HT-1080) was 42.2 nM, the IC50 (HepG2) was 45.5 nM and the IC50 (HUVEC [11]; read-out: IC50) was 6300 nM. The Activity (A549 [14]) was “Active” and the IC50 (HUVEC [12]) was 8.9 nM.

In the case of COc1cc(Cc2c[nH]c3c(OC)c(OC)c(OC)cc23)cc(OC)c1OC, the IC50 (A549 [1]) is reported as greater than 10000 nM.

For COc1ccc(C(=O)c2cn(S(=O)(=O)c3ccccc3)c3c(OC)c(OC)c(OC)cc23)cc1, the IC50 (A549 [1]) was greater than 10000 nM.

COc1ccc(C(=O)c2cn(C)c3c(OC)c(OC)c(OC)cc23)cc1 was tested, and the IC50 (A549 [1]) was 482 nM.

COc1ccc(Cc2c[nH]c3c(OC)c(OC)c(OC)cc23)cc1 showed an IC50 (A549 [1]) of 2990 nM.

In the case of COc1ccc(Cc2c[nH]c3c(OC)c(OC)c(OC)cc23)cc1F, the IC50 (A549 [1]) is reported as 387 nM.

COc1cccc(C(=O)c2c[nH]c3c(OC)c(OC)c(OC)cc23)c1 was tested, and the IC50 (A549 [1]) was greater than 10000 nM.

In the case of COc1cc2c(c(OC)c1OC)-c1ccc(OC)c(=O)cc1[C@@H](NC(C)=O)CC2 [COLCHICINE], the inhibition (HUVEC [7]) is reported as “Active”, the Activity (HUVEC [9]) is reported as 56% and the IC50 (HeLa) is reported as 37.4 nM. The IC50 (HT-1080) was 15.4 nM, the IC50 (HepG2) was 46.7 nM and the IC50 (HUVEC [11]) was 7.6 nM. For the same compound, the IC50 (HUVEC [12]) was 8.91 nM.

COc1ccc(C(=O)n2ccc3cc(OC)c(OC)c(OC)c32)cc1O was tested, and the IC50 (A549 [1]) was greater than 10000 nM.

With COc1ccc(Cc2c[nH]c3c(OC)c(OC)c(OC)cc23)cc1O the “Ratio IC50” value (HUVEC [10]) was 10.8, the IC50 (HeLa) was 149 nM and the IC50 (A549 [1]) was 118 nM. For the same compound, the IC50 (HT-1080) was 118 nM, the IC50 (HepG2) was 72.2 nM and the IC50 (HUVEC [11]; read-out: IC50) was 2450 nM. The IC50 (HUVEC [12]) was 228 nM.

Work on COc1ccc(C(=O)c2cn(C(C)=O)c3c(OC)c(OC)c(OC)cc23)cc1 yielded an IC50 (A549 [1]) of 5270 nM.
